# In patent US20250368651A1 (priority 2022, published 2025):
# Tests used:
# [1] = target: DNA S26 d(TGAAGGAAGG); assay: FP binding assay, 10-nt DNA S26
# Experimental: (§1) All synthetic DNA and RNA oligomers were purchased from Integrated DNA Technologies and reconstituted in nuclease-free water (Invitrogen #AM9932) at 1 mM. The concentration of the oligonucleotides at ˜0.1 mM was calibrated with the A260 value measured by a NanoDrop ND-1000 (Thermo, Waltham, MA, USA) and the predicted extinction coefficient (http://www.oligoevaluator.com) using Lamber-Beer's Law. The risdiplam analogues (1 mM in DMSO) were diluted in 2× assay buffer (40 mM HEPES, 200 mM NaCl for RNA; 40 mM HEPES, 200 mM NaCl, 1 mM MgCl2 for DNA) to make a 1 μM 2× working solution.
# (§2) A 1:2 dilution series (8 points) of each oligonucleotide was prepared in 20-30 μL water to desired concentrations (i.e., 1-128 μM). […] For fluorescence polarization measurement, 20 μL of the above 1× working solution was transferred into a 384-well, black, F-bottom microplates (Greiner Bio-One) in duplicates or triplicates. The plate was equilibrated at room temperature for 5 min before being read using a microplate reader (SYNERGY H1, BioTek; Excitation/Emission=360/460 nm) at 25° C. […] The mixture was then transferred into a microplate (20 μL each well) in duplicates for fluorescence polarization readout. The experimental data were analyzed using Prism 8 software (Graphpad Software, San Diego, CA, USA).
# [2] = target: DNA Seq6 (UGAAGGAAGGU as deoxyribonucleotides); assay: FP binding assay, DNA Seq6
# Experimental: as §1
# A 1:2 dilution series (8 points) of each oligonucleotide was prepared in 20-30 μL water to desired concentrations (i.e., 1-128 μM). 20-30 μL 2× working solution containing the 2× assay buffer and the small-molecule ligand was added to each oligonucleotide sample in 1:1 (v/v) and mixed by pipetting for 4 times. For fluorescence polarization measurement, 20 μL of the above 1× working solution was transferred into a 384-well, black, F-bottom microplates (Greiner Bio-One) in duplicates or triplicates. The plate was equilibrated at room temperature for 5 min before being read using a microplate reader (SYNERGY H1, BioTek; Excitation/Emission=360/460 nm) at 25° C. For compound SMN-C5, a competitive binding assay was employed to measure an apparent Kd. SMN-C5 was 1:2 serial diluted for 10 concentration points starting at 750 μM in DMSO. A mixture of SMN-C2 (0.5 μM) and DNA Seq6 (25 μM) in 1× assay buffer was prepared and incubated at room temperature for 10 minutes. 3 μL of SMN-C5 solution at each concentration was added to a 42 μL SMN-C2/DNA Seq6 mixture and incubated at room temperature for 10 minutes. The mixture was then transferred into a microplate (20 μL each well) in duplicates for fluorescence polarization readout. The experimental data were analyzed using Prism 8 software (Graphpad Software, San Diego, CA, USA).
# [3] = target: DNA Seq2 d(GAAGGAAGG); assay: FP binding assay, 9-nt DNA Seq2
# Experimental: as §1, §2
# [4] = target: DNA S3 […]; assay: FP binding assay, 18-nt DNA S3
# Experimental: as §1, §2
# [5] = target: RNA Seq7 UUAAGGAAGGU; assay: FP binding assay, RNA Seq7; conditions: Seq 7 UUAAGGAAGGU; 0.5 μM SMN-C2
# Experimental: as §1, §2
# [6] = in vitro; conditions: human
# [7] = target: COVID RNA (SARS-CoV-2 RNA SL5 per FIG. 8); assay: FP binding, Kd for COVID RNA; conditions: Table 3
# [8] = target: DNA Seq8 (UGAAGGAAGUU as deoxyribonucleotides); assay: FP binding assay, DNA Seq8; conditions: Seq 8; 0.5 μM SMN-C2
# Experimental: as §1, §2
# [9] = target: DNA Seq14 AGAAGGTAGGT; assay: FP binding assay, DNA Seq14; conditions: Seq 14 AGAAGGTAGGT; 0.5 μM SMN-C2
# Experimental: as §1, §2
# [10] = target: DNA S22 […]; assay: FP binding assay, 18-nt DNA S22
# Experimental: as §1, §2
# [11] = target: DNA S11 […]; assay: FP binding assay, 18-nt DNA S11
# Experimental: as §1, §2
# [12] = target: DNA S16 […]; assay: FP binding assay, 18-nt DNA S16
# Experimental: as §1, §2
# [13] = target: DNA S4 […]; assay: FP binding assay, 18-nt DNA S4
# Experimental: as §1, §2
# [14] = target: DNA Seq16 TGAAGGAAAGT; assay: FP binding assay, DNA Seq16; conditions: Seq 16 TGAAGGAAAGT; 0.5 μM SMN-C2
# Experimental: as §1, §2
# [15] = target: 5′-biotinylated RNA Seq4; assay: Surface plasmon resonance (SPR) assay, RNA Seq4; assay type: binding; conditions: footnote b: SPR assay for RNA Seq4
# Experimental: SPR experiments were performed on a Biacore T200 (GE Healthcare) instrument at 25° C. using streptavidin pre-coated SA sensor chips (GE Healthcare). The running buffer composed of 10 mM HEPES, 100 mM NaCl, 0.05% Tween 20 (w/v), 5 mM EDTA, 0.1% (v/v) DMSO at pH 6.8 was prepared freshly, filtered through the […] PVDF membrane prior to use. 5′-biotinylated RNA Seq4 was purchased from GenScript and dissolved in nuclease-free water to a concentration of 100 μM. For immobilization of the biotinylated RNA, the sensor chip was firstly conditioned with 3 consecutive 1 min injections of high salt solution (50 mM NaOH, 1M NaCl) at a flow rate of […]. Next, the biotinylated RNA was diluted 1000× in running buffer (100 nM) and applied over the streptavidin sensor chip surface at a flow rate of 10 μL/min to achieve immobilization level of about 800 RU. Finally, alkyne-PEG-biotin (50 μM in running buffer) was injected (1 min, […]) to block remaining streptavidin surface binding sites. The kinetics analysis was performed following the BiaControl Software Wizard Kinetics protocol. […] All monitored resonance signals were subtracted with signals from a non-binding reference channel. Kinetic values (Kd, ka, kd) were calculated using the BiaEvaluation Software Binding Affinity protocol with 1:1 fitting. […]
# [16] = in vitro; conditions: human; remark: listed apart in the source
structure (smiles),measurement,setting,value
"CCN1CCN(c2ccc3cc(-c4cn5cc(C)nc(C)c5n4)c(=O)oc3c2)C[C@@H]1C [SMN-C2, (S)-3-(6,8-dimethylimidazo[1,2-a]pyrazin-2-yl)-7-(4-ethyl-3-methylpiperazin-1-yl)-2H-chromen-2-one]",Kd,[1],6.2 ± 1 µM
same,Kd,"[2]; Seq 6, 0.5 μM SMN-C2, range = 95% CI, read-out: DNA Kd",3.1 ± 0.7 µM
same,decrease in binding affinity by any single-point mutation of the core sequence,[2]; Seq10-17 vs Seq6,≥ 5 fold
same,Kd,[3],34.3 ± 9.6 µM
same,Kd,[4],21.7 ± 2.7 µM
same,Kd,[5],42.3 ± 13.3 µM
same,CC50,[6],> 30 µM
same,Kd,[7],1.6 ± 0.4 µM
same,Kd,[8],14.7 ± 0.7 µM
same,Kd,[9],> 100 µM
same,Kd,[10],44.7 ± 7.2 µM
same,Kd,[11],26.3 ± 1.2 µM
same,Kd,[12],48.9 ± 12.2 µM
same,Kd,[13],> 50 µM
same,Kd,[14],27.4 ± 6 µM
same,Kd,[15],5.4 µM
same,CC50,[16],> 30 µM
